{
  "source": "patent US20250302795A1",
  "about": "“SMALL MOLECULE COMPOUNDS WITH NEGATIVE REGULATORY EFFECTS ON Nrf2 SIGNALING [sequence] AND THEIR POTENTIAL APPLICATIONS” (Beijing Hebabiz Biotechnology Co., Inc., priority 2022, published 2025)",
  "assay_type_in_all_cases": "in vivo, rat",
  "key": {"[1]": {"test_system": "rats with nonalcoholic steatohepatitis induced by a high-fat diet and CCl4", "test": "Liver indices, non-alcoholic steatohepatitis model induced by high-fat diet and CCl4", "details": "positive control group", "experimental": "(§1) The normal control group were fed a standard diet while the other groups were exclusively fed a high-fat diet consisting of 88% basal diet +10% lard +2% cholesterol for the initial six weeks. Starting from the seventh week, they received subcutaneous injections of a 30% CCl4 olive oil solution at a dosage of 0.2 ml/100 g behind their back twice per week for a total of four times. Once the model was successfully replicated, the corresponding drugs were administered orally (10 ml/kg) in each treatment group, and both the normal control group and the model group received equal volumes of a 0.5% CMC-Na solution once daily for ten consecutive weeks. Throughout the experimental period, the rats were provided with ad libitum access to food and water, while the animal chamber was maintained under controlled conditions of quietness, natural lighting, a temperature of 25±0.5° C., and a humidity level of 55±5%. The rats' body weights were measured once per week and recorded.\nAfter blood sampling from the abdominal aorta of rats, the liver tissue was isolated, rinsed with normal saline solution, dried using filter paper, weighed accurately, and subsequently calculated the Liver indices: Liver indices=wet liver weight/body weight×100%."}, "[2]": {"test": "Body weight of rats, high-fat diet + CCl4 non-alcoholic steatohepatitis model", "details": "positive control group, in g (unit assumed)", "experimental": "as §1\nThe weight changes of rats in each group were compared by conducting weekly weigh-ins after the experiment."}, "[3]": {"test_system": "rats with non-alcoholic steatohepatitis induced by high-fat diet", "test": "Serum biochemical indices, non-alcoholic steatohepatitis model induced by high-fat diet", "details": "end of 8th week of administration, positive control group", "experimental": "After establishing the model, the drug groups received their respective treatments at a dosage of 10 ml/kg while the normal and model groups received an equal volume of 0.5% CMC-Na solution. The rats were provided with ad libitum access to water and food, while the animal chamber was maintained under controlled conditions of quietness, natural lighting, a temperature of 25±0.5° C., and a humidity level of 55±5%. The rats' body weights were measured once per week and recorded.\nAt the end of the 8th week of administration, all rats were anesthetized with a 20% ulinastatin solution (10 ml/kg) via an intraperitoneal injection after the final administration. Subsequently, blood was collected from the abdominal aorta post-anesthesia. After standing for 1 hour, the blood was centrifuged at 4° C. and 3000 r/min for 15 minutes to obtain the upper serum fraction which was then stored at −80° C. Following the instructions provided by the biochemical index detection kit, levels of HDL-C, LDL-C, NEFA, AST, ALT, UA, TC, TG, FPG and FINS in rat serum were determined."}},
  "data": [
    {"smiles": "COC(=O)c1cc(OC)c2c(c1-c1c(CO)cc(OC)c3c1OCO3)OCO2", "note": "[Bicyclol]", "values": [
      {"measurement": "Liver Indices", "setting": "[1]", "result": "3.48 ± 0.41", "unit": "%"},
      {"measurement": "body weight", "setting": "[2]; week 1", "result": "195.81 ± 5.12"},
      {"measurement": "body weight", "setting": "[2]; week 2", "result": "252.07 ± 9.62"},
      {"measurement": "body weight", "setting": "[2]; week 3", "result": "293.51 ± 34.27"},
      {"measurement": "body weight", "setting": "[2]; week 4", "result": "366.45 ± 19.21"},
      {"measurement": "body weight", "setting": "[2]; week 5", "result": "404.78 ± 18.71"},
      {"measurement": "body weight", "setting": "[2]; week 6", "result": "438.13 ± 24.81"},
      {"measurement": "body weight", "setting": "[2]; week 7", "result": "471.76 ± 26.05"},
      {"measurement": "body weight", "setting": "[2]; week 8", "result": "493.73 ± 28.93"},
      {"measurement": "body weight", "setting": "[2]; week 9", "result": "500.11 ± 35.71"},
      {"measurement": "body weight", "setting": "[2]; week 10", "result": "516.75 ± 35.02"},
      {"measurement": "body weight", "setting": "[2]; week 11", "result": "483.11 ± 32.67"},
      {"measurement": "body weight", "setting": "[2]; week 12", "result": "486.89 ± 36.07"},
      {"measurement": "body weight", "setting": "[2]; week 13", "result": "508.69 ± 60.33"},
      {"measurement": "body weight", "setting": "[2]; week 14", "result": "526.54 ± 51.97"},
      {"measurement": "body weight", "setting": "[2]; week 15", "result": "536.32 ± 44.50"},
      {"measurement": "body weight", "setting": "[2]; week 16", "result": "559.17 ± 38.21"},
      {"measurement": "body weight", "setting": "[2]; week 17", "result": "573.81 ± 44.40"},
      {"measurement": "body weight", "setting": "[2]; week 18", "result": "581.09 ± 46.08"},
      {"measurement": "HOMA-IR", "setting": "[3]; FPG x FINS/22.5", "result": 1.04},
      {"measurement": "ALT", "setting": "[3]; serum", "result": 547.14, "unit": "U/L"},
      {"measurement": "AST", "setting": "[3]; serum", "result": 19.65, "unit": "U/L"},
      {"measurement": "HDL-C", "setting": "[3]; serum", "result": 1.34, "unit": "mmol/L"},
      {"measurement": "LDL-C", "setting": "[3]; serum", "result": 0.91, "unit": "mmol/L"},
      {"measurement": "NEFA", "setting": "[3]; serum", "result": 0.92, "unit": "mmol/L"},
      {"measurement": "TC", "setting": "[3]; serum", "result": 2.76, "unit": "mmol/L"},
      {"measurement": "TG", "setting": "[3]; serum", "result": 0.83, "unit": "mmol/L"},
      {"measurement": "UA", "setting": "[3]; serum", "result": 81.3, "unit": "µmol/L"}
    ]}
  ]
}
